Source: PMC8121762, “Peptidomics of enteroendocrine cells and characterisation of potential effects of a novel preprogastrin derived-peptide on glucose tolerance in lean mice” (Peptides, 2021)
Where no end group is shown, it is not given here.

Assay: Pharmacokinetics studies in mice (i.v. and s.c. bolus, plasma LC–MS/MS)
Type: in vivo
Details: mouse; for AUC / bioavailability: both sexes, C57BL/6 N J, plasma LC–MS/MS; for AUC: tail vein blood over 90 min; for Clearance: s.c.
Procedure: Male and female mice aged between 12–18 weeks old were used for these studies. Gast p59−79, ChgA 435−462a and Sst 25−36 were administered intravenously (i.v.) at 1 mg/kg and subcutaneously (s.c.) at various doses (see Fig. 7A, B and C for details on specific doses for each peptide). Blood samples were collected using EDTA coated microvette tubes (Starsedt, Leicester, UK) from the tail vein at various time points over 90 min. Blood was centrifuged (2000 g, 10 min, 4 °C) and the plasma separated. A 0.1 M sodium citrate (Sigma-Aldrich) buffer (adjusted to pH 3 with citric acid (Sigma-Aldrich)) was added to the plasma at a dilution of 1 in 10 to prevent degradation of Gast p59−79 and Sst 25−36. Plasma was stored -70 °C till extraction.
On the day of analysis, plasma samples were thawed, spiked with a stable isotope labelled version of Gast p59−79, ChgA 435−462a or Sst 25−36, and crashed with 200 μL 80 % ACN. After centrifuging, supernatants were removed and dried under gaseous nitrogen at 40 °C using a SPE Dry evaporator system (Biotage, Upsalla, Sweden). SPE was performed as described previously.
A Xevo TQ-XS triple quadrupole mass spectrometer coupled to H-class Aquity UPLC system enabled high throughput and targeted sample analysis. The column used was a Waters HSS T3 2.1 × 50 mm column at 60 °C and flowing at 350 μL/min. LC–MS/MS analysis was performed using positive ESI with a spray voltage of 3 kV, desolvation temperature 600°C, gas flow rate 1000 L/h and cone voltage of 40 V. Solvent A was 0.1 % FA in water (v/v) and Solvent B was 0.1 % FA in ACN (v/v). Each sample (40 μL per sample) was injected onto the column for 30 s with starting conditions set at 90 % A and 10 % B before the % B was increased to 50 % over the course of 3.5 min. The column was flushed with 90 % B for 1.5 min before initial conditions were restored. Total run time per sample was 5.5 min. Table 1 details the specifications used to quantify Gast p59−79, ChgA 435−462a, Sst 25−36 and their stable isotope labelled versions on a Xevo TQ-XS mass spectrometer.
Raw data files obtained on the Xevo TQ-XS triple quadrupole mass spectrometer were analysed using TargetLynx XS v4.2 software (Waters). Peptides were quantified by integrating the corresponding peaks and normalised to an internal standard if available. For pharmacokinetics studies, the concentration of peptide was estimated by comparing against a calibration line. SAAM II v2.2.1 (The Epsilon Group) with a Rosenbrock integrator and no maximum number of iterations was used to create a model for Gast p59−79 distribution and elimination upon single dose administration to mice.

AUC (sc, 10 mg/kg) [ng·h/mL] | detection in plasma after s.c. injection (in vivo, sc, 10 mg/kg) | half-life in vivo (in words) (pilot data) | Clearance (10 mg/kg) [mL/h/kg] | AUC (iv, 1 mg/kg) [ng·h/mL] | bioavailability (sc, 1 mg/kg) [%] | AUC (sc, 1 mg/kg) [ng·h/mL] | bioavailability (sc, 3 mg/kg) [%] | AUC (sc, 3 mg/kg) [ng·h/mL] | mass delivery rate required to obtain steady state concentration of 1 nM (estimated from PK data (SAAM II model), osmotic pump infusion) [mg/kg/day] | Clearance (1 mg/kg) [mL/h/kg] | Clearance (3 mg/kg) [mL/h/kg] | Substance
3.3 | only detectable at low concentrations | very short half-life | 3030 | – | – | – | – | – | – | – | – | APSDPRLRQFLQ [Sst 25−36]
– | – | – | – | 362 | 46.7 | 169 | 50.4 | 547 | 0.29 | 5.92 | 5.48 | AEDQELESLSAIEAELEKVAHQLQALRR-NH2 [ChgA 435−462a]
